The results in this text go back to patent US8435978B2, “Substituted sulfonamide compounds” (Gruenenthal GmbH, priority 2006, dated 2013).

Experiment [1] addresses T1, human B1R receptor (Homo sapiens, UniProt P46663).
T1 construct: host or cells: CHO K1 cells (Chinese hamster ovary), stably transfected
T1 sequence (P46663 1-353): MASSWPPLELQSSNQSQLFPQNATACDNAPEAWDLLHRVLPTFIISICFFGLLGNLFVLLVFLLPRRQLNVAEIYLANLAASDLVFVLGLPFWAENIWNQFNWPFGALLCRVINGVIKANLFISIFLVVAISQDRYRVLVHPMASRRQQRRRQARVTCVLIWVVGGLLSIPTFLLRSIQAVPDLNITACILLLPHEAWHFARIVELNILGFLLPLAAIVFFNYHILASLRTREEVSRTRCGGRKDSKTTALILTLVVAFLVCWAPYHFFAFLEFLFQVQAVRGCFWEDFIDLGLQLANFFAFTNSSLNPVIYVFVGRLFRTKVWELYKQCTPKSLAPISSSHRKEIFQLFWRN
Nature of the experiment: Functional study on the bradykinin receptor 1 (B1R), FLIPR Ca2+ assay, hB1R cells. The settings on record: CHO-K1, test substance 10 μM, agonist Lys-Des-Arg9-bradykinin 0.5 nM, % inhibition compared with the maximum achievable inhibition, read-out: B1R Antagonism, human [10 μM] % Inhibition. Format: cell-based. An outline of the steps: (§1)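 CHO K1 cells stably expressing human or rat B1R were loaded with Fluo-4 and read on a FLIPR (ex 488/em 540 nm, peak fluorescence). Test compounds at 10 μM were added first, then after 10 min agonist: Lys-Des-Arg9-bradykinin 0.5 nM for hB1R, Des-Arg9-bradykinin 100 nM for rB1R; % inhibition versus maximum inhibition.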

In experiment [2] the target is T2, B1R receptor of the rat (Rattus norvegicus, UniProt P97583).
T2 construct: host or cells: CHO K1 cells (Chinese hamster ovary), stably transfected
T2 sequence (P97583 1-337): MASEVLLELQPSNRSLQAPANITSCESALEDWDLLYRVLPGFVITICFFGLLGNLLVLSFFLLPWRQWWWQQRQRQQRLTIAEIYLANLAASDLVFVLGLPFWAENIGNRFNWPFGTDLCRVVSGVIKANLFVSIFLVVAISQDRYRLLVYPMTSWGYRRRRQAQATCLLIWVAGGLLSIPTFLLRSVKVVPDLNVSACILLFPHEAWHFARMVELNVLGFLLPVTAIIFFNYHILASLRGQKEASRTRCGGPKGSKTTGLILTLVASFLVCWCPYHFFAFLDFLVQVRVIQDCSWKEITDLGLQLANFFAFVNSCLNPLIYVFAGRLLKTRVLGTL
Nature of the experiment: Functional study on the bradykinin receptor 1 (B1R), FLIPR Ca2+ assay, rB1R cells. It is filed as cell-based. The settings on record: CHO-K1, test substance 10 μM, agonist Des-Arg9-bradykinin 100 nM, % inhibition compared with the maximum achievable inhibition, read-out: B1R Antagonism, rat [10 μM] % Inhibition. An outline of the steps: as §1

SMILES strings stand for the structures. Counter-ions that a name gives are not always drawn.

As to `COc1cc(C)c(S(=O)(=O)N2CCCCC2COCC(=O)N2CCC(c3cccnc3)C2)c(C)c1` (centres unmarked) [Example 237, 2-((1-(4-methoxy-2,6-dimethylphenylsulfonyl)piperidin-2-yl)methoxy)-1-(3-(pyridin-3-yl)pyrrolidin-1-yl)ethanone], the inhibition at 10 µM in experiment [1] amounted to 99.7%; in experiment [2] it was 99.5%.

Take `Cc1cccc(Cl)c1S(=O)(=O)N1CCCCC1COCC(=O)N1CCN(C2CCN(C)CC2)CC1` (centres unmarked) [Example 109, 2-((1-(2-chloro-6-methylphenylsulfonyl)piperidin-2-yl)methoxy)-1-(4-(1-methylpiperidin-4-yl)piperazin-1-yl)ethanone]: the inhibition at 10 µM in experiment [1] is 103%; in experiment [2], 102%.

With `CN1CCC(N2CCN(C(=O)COCC3CCCCN3S(=O)(=O)c3cccc(Cl)c3Cl)CC2)CC1` (centres unmarked) [Example 173, 2-((1-(2,3-dichlorophenylsulfonyl)piperidin-2-yl)methoxy)-1-(4-(1-methylpiperidin-4-yl)piperazin-1-yl)ethanone dihydrochloride], the inhibition at 10 µM in experiment [1] and in experiment [2] was 101% in each case.

Regarding `CCOCCN1CCN(C(=O)COCC2Cc3ccccc3CN2S(=O)(=O)c2c(C)cc(C)cc2C)CC1` (centres unmarked) [Example 245, 1-(4-(2-ethoxyethyl)piperazin-1-yl)-2-((2-(mesitylsulfonyl)-1,2,3,4-tetrahydroisoquinolin-3-yl)methoxy)ethanone], the values for the inhibition at 10 µM in experiment [1] and in experiment [2] were 69.9% and 80.5%, respectively.

Consider `COc1cc(C)c(S(=O)(=O)N2CCCC2COCC(=O)N2CCN(c3cccc(Cl)c3)CC2)c(C)c1` (centres unmarked) [Example 346, 1-(4-(3-chlorophenyl)piperazin-1-yl)-2-((1-(4-methoxy-2,6-dimethylphenylsulfonyl)pyrrolidin-2-yl)methoxy)ethanone], for which the results for the inhibition at 10 µM in experiment [1] and in experiment [2] were 95.5% and 101%, respectively.

`COc1cc(C)c(S(=O)(=O)N2CCCC2COCC(=O)N2CCC(N3CCN(C)CC3)CC2)c(C)c1` (centres unmarked) [Example 267, 2-((1-(4-methoxy-2,6-dimethylphenylsulfonyl)pyrrolidin-2-yl)methoxy)-1-(4-(4-methylpiperazin-1-yl)piperidin-1-yl)ethanone]: the inhibition at 10 µM was found to be 104% in experiment [1] and 95.2% in experiment [2].

Take `COc1cc(C)c(S(=O)(=O)N2CCCC2COCC(=O)N2CC[C@@H](N(C)C)C2)c(C)c1` (stereo partly drawn) [Example 476, 1-((R)-3-(dimethylamino)pyrrolidin-1-yl)-2-((1-(4-methoxy-2,6-dimethylphenylsulfonyl)pyrrolidin-2-yl)methoxy)ethanone]: the inhibition at 10 µM amounted to 90.1% in experiment [1] and 100% in experiment [2].

Turning to `COc1cc(C)c(S(=O)(=O)N2CCCCC2COCC(=O)Nc2nccc3ccccc23)c(C)c1` (centres unmarked) [Example 370, N-(isoquinolin-1-yl)-2-((1-(4-methoxy-2,6-dimethylphenylsulfonyl)piperidin-2-yl)methoxy)acetamide], the inhibition at 10 µM in experiment [1] stood at 18.7%; in experiment [2], 98.8%.

For the compound `O=C(COCC1CCCCN1S(=O)(=O)c1c(Cl)cccc1Cl)N1CCN(c2nc3ccccc3s2)CC1` (centres unmarked) [Example 553, 1-(4-(benzo[d]thiazol-2-yl)piperazin-1-yl)-2-((1-(2,6-dichlorophenylsulfonyl)piperidin-2-yl)methoxy)ethanone], the inhibition at 10 µM was determined as 54.1% in experiment [1] and 101% in experiment [2].

Regarding `CN(C)CCN1CCN(C(=O)COCC2CCCN2S(=O)(=O)c2c(Cl)cccc2Cl)CC1` (centres unmarked) [Example 452, 2-((1-(2,6-dichlorophenylsulfonyl)pyrrolidin-2-yl)methoxy)-1-(4-(2-(dimethylamino)ethyl)piperazin-1-yl)ethanone], the inhibition at 10 µM in experiment [1] came out at 105%; in experiment [2] it was 95.2%.

As for `COc1cc(C)c(S(=O)(=O)N2CCCC2COCC(=O)N2CCCCC2Cc2ccccn2)c(C)c1` (centres unmarked) [Example 449, 2-((1-(4-methoxy-2,6-dimethylphenylsulfonyl)pyrrolidin-2-yl)methoxy)-1-(2-(pyridin-2-ylmethyl)piperidin-1-yl)ethanone], the results for the inhibition at 10 µM in experiment [1] and in experiment [2] were 90.8% and 99.7%, respectively.

Turning to `COc1cccc(N2CCN(C(=O)COCC3CCCCN3S(=O)(=O)c3c(C)cc(C)cc3C)CC2)c1` (centres unmarked) [Example 77, 1-[4-(3-methoxy-phenyl)-piperazin-1-yl]-2-[1-(2,4,6-trimethyl-phenylsulfonyl)-piperidin-2-ylmethoxy]-ethanone], the results for the inhibition at 10 µM in experiment [1] and in experiment [2] were 48% and 105%, respectively.

Consider `Cc1cc(C)c(S(=O)(=O)N2CCCCC2COCC(=O)Nc2ccc(-n3ccnc3C)cc2)c(C)c1` (centres unmarked) [Example 87, N-[4-(2-methyl-imidazol-1-yl)-phenyl]-2-[1-(2,4,6-trimethyl-phenylsulfonyl)-piperidin-2-ylmethoxy]-acetamide], for which the inhibition at 10 µM was found to be 42.7% in experiment [1] and 44.4% in experiment [2].

Consider `CCN(CC)CCN(CC)C(=O)COCC1CCCCN1S(=O)(=O)c1c(C)cc(OC)cc1C` (centres unmarked) [Example 380, N-(2-(diethylamino)ethyl)-N-ethyl-2-((1-(4-methoxy-2,6-dimethylphenylsulfonyl)piperidin-2-yl)methoxy)acetamide], for which the inhibition at 10 µM in experiment [1] was determined as 91.5%; in experiment [2], 101%.

Regarding `Cc1cc(S(=O)(=O)N2CCCCC2COCC(=O)N2CCN(C3CCN(C)CC3)CC2)c(C)s1` (centres unmarked) [Example 172, 2-((1-(2,5-dimethylthiophen-3-ylsulfonyl)piperidin-2-yl)methoxy)-1-(4-(1-methylpiperidin-4-yl)piperazin-1-yl)ethanone], the inhibition at 10 µM turned out to be 101% in experiment [1] and 85.2% in experiment [2].

For `Cc1ccc(Cl)cc1N1CCN(C(=O)COCC2CCCCN2S(=O)(=O)c2c(Cl)cccc2Cl)CC1` (centres unmarked) [Example 321, 1-(4-(5-chloro-2-methylphenyl)piperazin-1-yl)-2-((1-(2,6-dichlorophenylsulfonyl)piperidin-2-yl)methoxy)ethanone], the figures for the inhibition at 10 µM in experiment [1] and in experiment [2] were 41.2% and 100%, respectively.

For `COc1cc(C)c(S(=O)(=O)N2CCCC2COCC(=O)NCc2ccc(CN3CCCC3)cc2)c(C)c1` (centres unmarked) [Example 299, 2-((1-(4-methoxy-2,6-dimethylphenylsulfonyl)pyrrolidin-2-yl)methoxy)-N-(4-(pyrrolidin-1-ylmethyl)benzyl)acetamide], the inhibition at 10 µM in experiment [1] worked out at 106%; in experiment [2], 103%.

For the compound `COc1cc(C)c(S(=O)(=O)N2CCCC2COCC(=O)N2CCC(N3CCCCC3)CC2)c(C)c1` (centres unmarked) [Example 520, 1-(1,4′-bipiperidin-1′-yl)-2-((1-(4-methoxy-2,6-dimethylphenylsulfonyl)pyrrolidin-2-yl)methoxy)ethanone], the inhibition at 10 µM came out at 103% in experiment [1] and 102% in experiment [2].

For the compound `COc1cc(C)c(S(=O)(=O)N2CCCC2COCC(=O)N2CCCC2Cc2cccc(C)n2)c(C)c1` (centres unmarked) [Example 448, 2-((1-(4-methoxy-2,6-dimethylphenylsulfonyl)pyrrolidin-2-yl)methoxy)-1-(2-((6-methylpyridin-2-yl)methyl)pyrrolidin-1-yl)ethanone], the inhibition at 10 µM in experiment [1] amounted to 85.8%; in experiment [2], 99.8%.

Take `Cc1ccc(S(=O)(=O)N2CCCCC2COCC(=O)N2CCN(C3CCN(C)CC3)CC2)c2ccccc12` (centres unmarked) [Example 155, 2-((1-(4-methylnaphthalen-1-ylsulfonyl)piperidin-2-yl)methoxy)-1-(4-(1-methylpiperidin-4-yl)piperazin-1-yl)ethanone dihydrochloride]: the results for the inhibition at 10 µM in experiment [1] and in experiment [2] were 107% and 89.6%, respectively.

Turning to `COc1ccc(N2CCN(C(=O)COCC3CCCCN3S(=O)(=O)c3ccc(Cl)c(Cl)c3)CC2)cc1` (centres unmarked) [Example 84, 2-[1-(3,4-dichloro-phenylsulfonyl)-piperidin-2-ylmethoxy]-1-[4-(4-methoxy-phenyl)-piperazin-1-yl]-ethanone], the figures for the inhibition at 10 µM in experiment [1] and in experiment [2] were 43.7% and 0%, respectively.

As for `COc1cc(C)c(S(=O)(=O)N2CCCCC2CCOCC(=O)N2CCN(C3CCN(C)CC3)CC2)c(C)c1` (centres unmarked) [Example 164, 2-(2-(1-(4-methoxy-2,6-dimethylphenylsulfonyl)piperidin-2-yl)ethoxy)-1-(4-(1-methylpiperidin-4-yl)piperazin-1-yl)ethanone], the inhibition at 10 µM is 99.6% in experiment [1] and 101% in experiment [2].
